Laboratory results as given in US8492350B2, “Therapeutic agent for pain disease” (Nippon Zoki Pharmaceutical Co., Ltd., priority 2007, dated 2013).

Legend:
[1] = tested on: Chung model rats which are models of neuropathic pain; assay: Test for analgesic effect (allodynia, von Frey filament, up-down method) in Chung model rats; type: in vivo, rats of Wistar strain; settings: for 50% Reaction Threshold Values, Before Administration: baseline
Description: Test for analgesic effect was conducted using Chung model rats which are models of neuropathic pain. Male rats of Wistar strain of 9 weeks age were used as experimental animals and model rats were prepared according to a method of Kim and Chung (Pain, vol. 50, pages 355 to 363, 1992). Thus, when they were in 10 weeks age, rat L5 spinal nerve was exposed and the periphery side of L5 dorsal root ganglion was strongly ligated with 5-0 silk yarn under anesthetizing with pentobarbital (40 mg/kg, intraperitoneal administration) to conduct a nerve damage. The animals were placed in a transparent acrylic cage where the bottom was wire net, 50% reaction threshold values were calculated by an up-down method using a von Frey filament (manufactured by North Coast Medical Inc.) according to a method of Chaplan, et al. (J. Neurosci. Method, vol. 53, pages 55 to 63, 1994) and the effect of the test substance to allodynia was measured. […] In those experimental animals, each group comprised seven animals using the 50% reaction threshold values after the nerve damage as an index and the group constitution was done in such a manner that mean values of a nerve damage control group and of a test substance-administered group were made nearly uniform.
N-acetylneuraminic acid as a test substance was intraperitoneally administered in a single dose (120 mg/kg). A 0.5% CMC-Na (w/v) solution/physiological saline was similarly administered to the nerve damage control group (control group). After 30 minutes from the administration of a test substance, pain tests were conducted and the calculated 50% reaction threshold values were expressed in terms of mean value±standard deviation for each group.
Further, in the same manner as the above test, N-acetylneuraminic acid as a test substance was orally administered in a single dose (300 mg/kg). Injection solvent was administered to a nerve damage control group (control group) in the same manner. After 60 minutes from the administration of a test substance, pain tests were conducted and the 50% reaction threshold values were calculated. Numbers of the animals were eight for each of the nerve damage control group and the test substance-administered group.

[2] = disclosed in Patent Document 1 / Example 8 of Japanese Examined Patent Publication No. 63/028,411; cited from earlier work

| Structure (SMILES) | 50% reaction threshold value as compared with the nerve damage control group (anti-allodynia action) ([1]; both single intraperitoneal injection and single oral administration) | 50% Reaction Threshold Values, Before Administration ([1]; group later given a single intraperitoneal dose of 120 mg/kg, mean ± standard deviation) [g] | 50% Reaction Threshold Values, Before Administration ([1]; group later given a single oral dose of 300 mg/kg) [g] | 50% Reaction Threshold Values, After 30 minutes from Administration ([1]; single intraperitoneal dose 120 mg/kg, 30 minutes after administration, mean ± standard deviation, *P < 0.05 vs nerve damage control) | 50% Reaction Threshold Values, After 60 minutes from Administration ([1]; single oral dose 300 mg/kg, 60 minutes after administration, *P < 0.05 vs nerve damage control) | Acute toxicity [2] |
| --- | --- | --- | --- | --- | --- | --- |
| CC(=O)N[C@H]1[C@H]([C@H](O)[C@H](O)CO)OC(O)(C(=O)O)C[C@@H]1O (stereo partly shown) [N-Acetylneuraminic Acid, N-acetylneuraminic acid] | significant rise | 2.63 ± 0.21 | 2.75 ± 0.15 | 6.74 ± 1.64* g | 4.81 ± 0.35* g | very low and safe |
| CC(=O)N[C@H]1[C@H]([C@H](O)[C@H](O)CO)OC(O)(C(=O)[O-])C[C@@H]1O.[Na+] (stereo partly shown) [sodium N-acetylneuraminate] |  |  |  |  |  | very lowly toxic |
